In patent US9440969B2, “Compounds and methods for kinase modulation, and indications therefor” (PLEXXIKON INC., priority 2009, dated 2016):

Key:
B-Raf V600E = B-Raf V600E (Homo sapiens, UniProt P15056, V600E); assay: B-Raf V600E kinase activity assay (AlphaScreen, biotin-MEK1 substrate); conditions: 100 μM ATP, 100 nM biotin-MEK1, 45 minutes at room temperature, read-out: Biochemical activity (IC50 μM) V600E
Protocol: (§1) Assays for biochemical and cell based activity are known in the art, for example, as described in PCT publication WO 2007/002433, the disclosure of which is hereby incorporated by reference as it relates to such assays. For example, the biochemical activity IC50 values are determined with respect to inhibition of B-Raf kinase activity, c-Raf-1 kinase activity, or B-Raf V600E kinase activity, where inhibition of phosphorylation of a peptide substrate is measured as a function of compound concentration. Compounds to be tested are diluted in dimethyl sulfoxide to a concentration of 0.1 mM. These are serially diluted 15 μL into 30 μL of dimethyl sulfoxide seven times in 96 well plates for a total of 8 dilution points, and for each dilution point 1 μL is added to a well of an assay plate. Plates are prepared such that each well in a 384 well plate contains 1 μL of compound in 10 μL, volume with 0.1 ng Raf enzyme (i.e. any of B-Raf, c-Raf-1 or B-Raf V600E, Upstate Biotechnology or prepared by methods known to one of skill in the art), 50 mM HEPES, pH 7.0, 50 mM NaCl, 2 mM MgCl2, 1 mM MnCl2, 0.01% Tween-20, 1 mM DTT, and 100 nM biotin-MEK1 as substrate. The reaction is started with addition of 10 μL of 200 μM ATP (i.e. final 100 μM ATP). After incubation of the kinase reaction for 45 minutes at room temperature, 5 μL/well of Stop Solution is added (25 mM Hepes pH 7.5, 100 mM EDTA, 0.01% BSA with donor beads (Streptavidin coated beads, Perkin Elmer), acceptor beads (Protein A coated, Perkin Elmer), and anti phosphor MEK1/2 antibody (CellSignal), each at final concentration 10 μg/mL). The plates are incubated for 3 hours at room temperature and read on Envision reader (Perkin Elmer). Phosphorylation of Mek1 results in binding of the anti-phosphor-MEK1/2 antibody and association of the donor and acceptor beads such that signal correlates with kinase activity. The signal vs. compound concentration is used to determine the IC50.

c-Raf-1 = c-Raf-1 (Homo sapiens, UniProt P04049); assay: c-Raf-1 kinase activity assay (AlphaScreen, biotin-MEK1 substrate); conditions: 100 μM ATP, 100 nM biotin-MEK1, 45 minutes at room temperature; read-out: Biochemical activity (IC50 μM) c-Raf-1
c-Raf-1, sequence (P04049 whole entry Y340D/Y341D, form open): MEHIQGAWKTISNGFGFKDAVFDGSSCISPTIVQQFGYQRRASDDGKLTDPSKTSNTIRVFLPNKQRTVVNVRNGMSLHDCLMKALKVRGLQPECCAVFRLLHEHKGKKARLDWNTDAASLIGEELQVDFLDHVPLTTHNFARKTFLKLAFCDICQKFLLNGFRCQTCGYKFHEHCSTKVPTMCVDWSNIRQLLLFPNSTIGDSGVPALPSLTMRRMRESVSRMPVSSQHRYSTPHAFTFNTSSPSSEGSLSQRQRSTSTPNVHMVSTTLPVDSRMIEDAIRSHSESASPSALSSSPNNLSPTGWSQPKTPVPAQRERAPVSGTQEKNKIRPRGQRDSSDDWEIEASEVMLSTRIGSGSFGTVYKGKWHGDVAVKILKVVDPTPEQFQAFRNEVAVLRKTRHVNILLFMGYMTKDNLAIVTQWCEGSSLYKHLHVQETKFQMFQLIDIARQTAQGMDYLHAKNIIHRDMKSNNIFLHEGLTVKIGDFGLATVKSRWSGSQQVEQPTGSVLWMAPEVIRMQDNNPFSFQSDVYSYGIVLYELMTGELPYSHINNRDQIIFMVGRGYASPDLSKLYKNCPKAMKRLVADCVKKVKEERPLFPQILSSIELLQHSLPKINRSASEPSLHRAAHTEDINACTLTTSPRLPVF
Protocol: as §1

B-Raf = B-Raf (Homo sapiens, UniProt P15056); assay: B-Raf kinase activity assay (AlphaScreen, biotin-MEK1 substrate); conditions: 100 μM ATP, 100 nM biotin-MEK1, 45 minutes at room temperature; read-out: Biochemical activity (IC50 μM) B-Raf
B-Raf, sequence (P15056 whole entry): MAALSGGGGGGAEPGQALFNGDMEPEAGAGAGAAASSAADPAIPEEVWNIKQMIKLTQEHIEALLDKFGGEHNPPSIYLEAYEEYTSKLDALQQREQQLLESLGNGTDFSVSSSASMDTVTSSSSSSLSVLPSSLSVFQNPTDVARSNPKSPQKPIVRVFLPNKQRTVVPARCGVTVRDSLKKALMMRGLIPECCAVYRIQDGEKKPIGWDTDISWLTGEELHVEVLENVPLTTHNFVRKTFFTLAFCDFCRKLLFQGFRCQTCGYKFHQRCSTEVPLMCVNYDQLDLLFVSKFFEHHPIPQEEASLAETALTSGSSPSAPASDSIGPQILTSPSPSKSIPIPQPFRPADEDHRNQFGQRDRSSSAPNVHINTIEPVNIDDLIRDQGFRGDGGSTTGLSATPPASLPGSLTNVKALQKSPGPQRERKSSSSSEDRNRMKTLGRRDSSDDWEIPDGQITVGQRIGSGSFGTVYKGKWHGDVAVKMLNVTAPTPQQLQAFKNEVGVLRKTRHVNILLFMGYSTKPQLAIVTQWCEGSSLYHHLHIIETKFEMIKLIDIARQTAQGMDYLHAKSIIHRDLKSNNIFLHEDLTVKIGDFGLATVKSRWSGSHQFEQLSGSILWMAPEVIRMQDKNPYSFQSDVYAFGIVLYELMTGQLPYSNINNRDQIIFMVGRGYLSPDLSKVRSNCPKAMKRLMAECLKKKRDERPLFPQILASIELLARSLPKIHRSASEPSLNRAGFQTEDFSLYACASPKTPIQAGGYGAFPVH
Protocol: as §1

[1] = Relative solubility by turbidity in aqueous buffers (pH 1.5, 4.5, 6.8, 7.4); type: physicochemical; conditions: for turbidity threshold (L, M, H) 1.4: pH 1.5 buffer (SGF); for turbidity threshold (L, M, H) 4.5: pH 4.5 buffer (SIF); for turbidity threshold (L, M, H) 6.8: pH 6.8 buffer (SIF); for turbidity threshold (L, M, H) 7.4: pH 7.4 buffer (HEPES)
Protocol: As an indication of relative solubility, the turbidity of compounds in aqueous solutions is assessed. To assess possible compound properties in different physiological compartments, such as stomach, intestine, and blood, a series of aqueous buffers with varying pH is used. Thus each compound is diluted into four different physiologically relevant buffers and solution turbidity is measured by spectrophotometry.
Compounds are dissolved at a concentration of 25 mM in dimethyl sulfoxide, then serially diluted 1:1 into a 96 well plate, diluting 10 times in pure dimethyl sulfoxide, with the final well of each row a dimethyl sulfoxide blank. In an assay plate, 99 μL of appropriate buffer is added to each well, and 1 μL of each sample dilution is added to the buffer, achieving a range of final total concentrations in aqueous solutions having different pH. The buffers used are Simulated Gastric Fluid (SGF-pH 1.5) 0.5M NaCl, pH 1.5; Simulated Intestinal fluid (SIF-pH 4.5 and pH 6.8) 0.05M NaH2PO4, pH 4.5 and 6.8; and Hepes Buffer (HEPES-pH 7.4) 10 mM HEPES, 150 mM NaCl, pH 7.4. Control compounds pyrene, estriol and propranolol HCl are also assessed. Plates are spun and then mixed for 1 minute, and the absorbance is read using a Tecan Safire II to read wavelengths in the visible range (490, 535, and 650 nm) at four locations per well, reflecting the degree of turbidity present. The average optical density for each wavelength in each well is graphed vs. compound concentration, and the concentration at which the curve crosses a threshold O.D. of 0.01 for each wavelength is reported as the endpoint turbidity assay result. The average of the three wavelengths is used to compare turbidity of compounds. Compounds are considered to have low solubility if the threshold concentration is <31.3 μM, moderate solubility if the threshold concentration is 31.3 μM to 250 μM, and high solubility if the threshold concentration is >250 μM.
The following table indicates the relative solubility (L=low, M=moderate, H=high) based on turbidity threshold concentration at each pH for exemplary compounds according to the invention: […]

B-Raf V600E, sequence (P15056 whole entry V600E): as the sequence (P15056 whole entry) above, with V600E counted along it

Compound | IC50 (B-Raf V600E) | IC50 (c-Raf-1) | IC50 (B-Raf) | turbidity threshold (L, M, H) 1.4 [1] | turbidity threshold (L, M, H) 4.5 [1] | turbidity threshold (L, M, H) 6.8 [1] | turbidity threshold (L, M, H) 7.4 [1]
Cn1ccc(-c2cnc3[nH]cc(C(=O)c4c(F)ccc(NS(=O)(=O)c5cc(F)ccc5F)c4F)c3c2)n1 [P-1011, N-{2,4-Difluoro-3-[5-(1-methyl-1H-pyrazol-3-yl)-1H-pyrrolo[2,3-b]pyridine-3-carbonyl]-phenyl}-2,5-difluoro-benzenesulfonamide] | < 0.1 µM | < 0.1 µM | < 0.1 µM | L (low solubility if the threshold concentration is <31.3 μM) | L (low solubility if the threshold concentration is <31.3 μM) | M (moderate solubility if the threshold concentration is 31.3 μM to 250 μM) | M (moderate solubility if the threshold concentration is 31.3 μM to 250 μM)
Cc1cc(-c2cnc3[nH]cc(C(=O)c4c(F)ccc(NS(=O)(=O)c5cc(F)ccc5F)c4F)c3c2)n(C)n1 [P-1010, N-{3-[5-(2,5-Dimethyl-2H-pyrazol-3-yl)-1H-pyrrolo[2,3-b]pyridine-3-carbonyl]-2,4-difluoro-phenyl}-2,5-difluoro-benzenesulfonamide] | < 0.1 µM | < 0.1 µM | < 0.1 µM | M (moderate solubility if the threshold concentration is 31.3 μM to 250 μM) | L (low solubility if the threshold concentration is <31.3 μM) | L (low solubility if the threshold concentration is <31.3 μM) | M (moderate solubility if the threshold concentration is 31.3 μM to 250 μM)
COc1ccc(-c2cnc3[nH]cc(C(=O)c4c(F)ccc(NS(=O)(=O)c5cc(F)ccc5F)c4F)c3c2)c(OC)n1 [P-1406, N-{3-[5-(2,6-Dimethoxy-pyridin-3-yl)-1H-pyrrolo[2,3-b]pyridine-3-carbonyl]-2,4-difluoro-phenyl}-2,5-difluoro-benzenesulfonamide] | < 0.1 µM | < 0.1 µM | < 0.1 µM | L (low solubility if the threshold concentration is <31.3 μM) | L (low solubility if the threshold concentration is <31.3 μM) | L (low solubility if the threshold concentration is <31.3 μM) | L (low solubility if the threshold concentration is <31.3 μM)

Second part, led by results:

IC50 (B-Raf V600E) | IC50 (c-Raf-1) | IC50 (B-Raf) | Compound | turbidity threshold (L, M, H) 1.4 [1] | turbidity threshold (L, M, H) 4.5 [1] | turbidity threshold (L, M, H) 6.8 [1] | turbidity threshold (L, M, H) 7.4 [1]
< 0.1 µM | < 0.1 µM | < 0.1 µM | CN(C)c1ncc(-c2cnc3[nH]cc(C(=O)c4c(F)ccc(NS(=O)(=O)c5cc(F)ccc5F)c4F)c3c2)cn1 [P-1502, N-{3-[5-(2-Dimethylamino-pyrimidin-5-yl)-1H-pyrrolo[2,3-b]pyridine-3-carbonyl]-2,4-difluoro-phenyl}-2,5-difluoro-benzenesulfonamide] | L (low solubility if the threshold concentration is <31.3 μM) | L (low solubility if the threshold concentration is <31.3 μM) | L (low solubility if the threshold concentration is <31.3 μM) | L (low solubility if the threshold concentration is <31.3 μM)
< 0.1 µM | < 0.1 µM | < 0.1 µM | CN(C)c1ccc(-c2cnc3[nH]cc(C(=O)c4c(F)ccc(NS(=O)(=O)c5cc(F)ccc5F)c4F)c3c2)cn1 [P-1409, N-{3-[5-(6-Dimethylamino-pyridin-3-yl)-1H-pyrrolo[2,3-b]pyridine-3-carbonyl]-2,4-difluoro-phenyl}-2,5-difluoro-benzenesulfonamide] | L (low solubility if the threshold concentration is <31.3 μM) | L (low solubility if the threshold concentration is <31.3 μM) | L (low solubility if the threshold concentration is <31.3 μM) | L (low solubility if the threshold concentration is <31.3 μM)
< 0.1 µM | < 0.1 µM | < 0.1 µM | CONC(=O)c1cccc(-c2cnc3[nH]cc(C(=O)c4c(F)ccc(NS(=O)(=O)c5cc(F)ccc5F)c4F)c3c2)c1 [P-1704, 3-{3-[3-(2,5-Difluoro-benzenesulfonylamino)-2,6-difluoro-benzoyl]-1H-pyrrolo[2,3-b]pyridin-5-yl}-N-methoxy-benzamide] | L (low solubility if the threshold concentration is <31.3 μM) | L (low solubility if the threshold concentration is <31.3 μM) | L (low solubility if the threshold concentration is <31.3 μM) | L (low solubility if the threshold concentration is <31.3 μM)
< 0.1 µM | < 0.1 µM | < 0.1 µM | COc1ncc(-c2cnc3[nH]cc(C(=O)c4c(F)ccc(NS(=O)(=O)c5cc(F)ccc5F)c4F)c3c2)c(OC)n1 [P-1501, N-{3-[5-(2,4-Dimethoxy-pyrimidin-5-yl)-1H-pyrrolo[2,3-b]pyridine-3-carbonyl]-2,4-difluoro-phenyl}-2,5-difluoro-benzenesulfonamide] | L (low solubility if the threshold concentration is <31.3 μM) | L (low solubility if the threshold concentration is <31.3 μM) | L (low solubility if the threshold concentration is <31.3 μM) | L (low solubility if the threshold concentration is <31.3 μM)
